Each block holds one compound with its values, some of them ahead of it.
Tests used:
Assay type in all cases: cell-based
Lovo cells (G13D) = assay: Cell viability assay (CellTiter-Glo), Lovo cells; settings: Homo sapiens, 72 h; Lovo cells, 3 days incubation, CellTiter-Glo luminescence; read-out: Inhibition of Cancerous Cells IC50 Lovo (G13D)
Protocol: (§1) H358, H23, SW48, and AsPC-1 cells were cultured in RPMI 1640 media supplemented with 10% fetal bovine serum, streptomycin, and penicillin. Lovo and SW480 cells were cultured in DMEM media supplemented with 10% fetal bovine serum, streptomycin, and penicillin. The cell lines were plated in their respective medium supplemented with 2.5% fetal bovine serum, streptomycin, and penicillin. All cell lines were plated in white walled 96-well plates at 2,000 cells/well or 384-well plates at 500 cells/well, except Lovo, which were plated at 4,000 or 1,000 cells/well, respectively. The cells were incubated in DMSO (control) or a compound for 3 days at 37° C. under 5% CO2. A CELLTITER-GLO® reagent (100 μL) was then added to each well. After a 10 min incubation with shaking, luminescence was measured using an ENVISION® multimode plate reader.

SW48 cells (wt) = assay: Cell viability assay (CellTiter-Glo), SW48 cells; settings: Homo sapiens, 72 h; SW48 cells, 3 days incubation, CellTiter-Glo luminescence; read-out: Inhibition of Cancerous Cells IC50 SW48 (wt)
Protocol: as §1

SW480 cells (G12V) = assay: Cell viability assay (CellTiter-Glo), SW480 cells; settings: Homo sapiens, 72 h; SW480 cells, 3 days incubation, CellTiter-Glo luminescence; read-out: Inhibition of Cancerous Cells IC50 SW480 (G12V)
Protocol: as §1

H358 cells (G12C) = assay: Cell viability assay (CellTiter-Glo), H358 cells; settings: Homo sapiens, NCI-H358, 72 h; H358 cells, 3 days incubation, CellTiter-Glo luminescence; read-out: Inhibition of Cancerous Cells IC50 H358 (G12C)
Protocol: as §1

Structure (SMILES): COc1cc2c(N[C@H](C)c3cccc(Br)c3)nc(C)nc2cc1OCCCCCCCCC(=O)NCc1cccc2c1CN(C1CCC(=O)NC1=O)C2=O (stereo partly drawn) [Compound A6, 9-((4-(((R)-1-(3-bromophenyl)ethyl)amino)-6-methoxy-2-methylquinazolin-7-yl)oxy)-N-((2-(2,6-dioxopiperidin-3-yl)-1-oxoisoindolin-4-yl)methyl)nonanamide]
IC50 (Lovo cells (G13D)): 4.9 µM | IC50 (SW48 cells (wt)): > 10 µM | IC50 (SW480 cells (G12V)): 8.3 µM | IC50 (H358 cells (G12C)): 9.9 µM

Structure (SMILES): COc1cc2c(N[C@H](C)c3cccc(Br)c3)nc(C)nc2cc1OCCCCCCCC(=O)NCc1cccc2c1CN(C1CCC(=O)NC1=O)C2=O (stereo partly drawn) [Compound A7, 8-((4-(((R)-1-(3-Bromophenyl)ethyl)amino)-6-methoxy-2-methylquinazolin-7-yl)oxy)-N-((2-(2,6-dioxopiperidin-3-yl)-1-oxoisoindolin-4-yl)methyl)octanamide]
IC50 (Lovo cells (G13D)): 3.5 µM | IC50 (SW48 cells (wt)): 5 µM | IC50 (SW480 cells (G12V)): 6.4 µM | IC50 (H358 cells (G12C)): 5.4 µM

Structure (SMILES): COc1cc2c(N[C@H](C)c3cccc(Br)c3)nc(C)nc2cc1OCCCCCCCC(=O)NCc1ccc2c(c1)CN(C1CCC(=O)NC1=O)C2=O (stereo partly drawn) [Compound A8, 8-((4-(((R)-1-(3-Bromophenyl)ethyl)amino)-6-methoxy-2-methylquinazolin-7-yl)oxy)-N-((2-(2,6-dioxopiperidin-3-yl)-1-oxoisoindolin-5-yl)methyl)octanamide]
IC50 (Lovo cells (G13D)): 0.97 µM | IC50 (SW48 cells (wt)): 0.4 µM | IC50 (SW480 cells (G12V)): 2.1 µM | IC50 (H358 cells (G12C)): 1.6 µM

Structure (SMILES): COc1cc2c(N[C@H](C)c3cccc(Br)c3)nc(C)nc2cc1OCCCCCCCCC(=O)NCc1ccc2c(c1)CN(C1CCC(=O)NC1=O)C2=O (stereo partly drawn) [Compound A9, 9-((4-(((R)-1-(3-Bromophenyl)ethyl)amino)-6-methoxy-2-methylquinazolin-7-yl)oxy)-N-((2-(2,6-dioxopiperidin-3-yl)-1-oxoisoindolin-5-yl)methyl)nonanamide]
IC50 (Lovo cells (G13D)): 0.047 µM | IC50 (SW48 cells (wt)): 0.022 µM | IC50 (SW480 cells (G12V)): 1.2 µM | IC50 (H358 cells (G12C)): 0.82 µM

Structure (SMILES): COc1cc2c(N[C@H](C)c3cccc(Br)c3)nc(C)nc2cc1OCCCCCN1CCC(c2cc(F)cc3c2CN(C2CCC(=O)NC2=O)C3=O)CC1 (stereo partly drawn) [Compound A11, 3-(4-(1-(5-((4-(((R)-1-(3-Bromophenyl)ethyl)amino)-6-methoxy-2-methyl-quinazolin-7-yl)oxy)pentyl)piperidin-4-yl)-6-fluoro-1-oxoisoindolin-2-yl)piperidine-2,6-dione]
IC50 (Lovo cells (G13D)): 0.41 µM | IC50 (SW48 cells (wt)): 0.51 µM | IC50 (SW480 cells (G12V)): 0.56 µM | IC50 (H358 cells (G12C)): 1.6 µM

Structure (SMILES): COc1cc2c(N[C@H](C)c3cccc(Br)c3)nc(C)nc2cc1OCCCCN1CCN(C(=O)COc2cc(F)cc3c2CN(C2CCC(=O)NC2=O)C3=O)CC1 (stereo partly drawn) [Compound A13, 3-(4-(2-(4-(4-((4-(((R)-1-(3-Bromophenyl)ethyl)amino)-6-methoxy-2-methyl-quinazolin-7-yl)oxy)butyl)piperazin-1-yl)-2-oxoethoxy)-6-fluoro-1-oxoisoindolin-2-yl)-piperidine-2,6-dione]
IC50 (Lovo cells (G13D)): 9.8 µM | IC50 (SW48 cells (wt)): 5.9 µM | IC50 (SW480 cells (G12V)): 6.6 µM | IC50 (H358 cells (G12C)): 7.4 µM

Structure (SMILES): COc1cc2c(N[C@H](C)c3cccc(Br)c3)nc(C)nc2cc1OCCCCCN1CCN(C(=O)COc2cc(F)cc3c2CN(C2CCC(=O)NC2=O)C3=O)CC1 (stereo partly drawn) [Compound A14, 3-(4-(2-(4-(5-((4-(((R)-1-(3-Bromophenyl)ethyl)amino)-6-methoxy-2-methyl-quinazolin-7-yl)oxy)pentyl)piperazin-1-yl)-2-oxoethoxy)-6-fluoro-1-oxoisoindolin-2-yl)-piperidine-2,6-dione]
IC50 (Lovo cells (G13D)): 2.8 µM | IC50 (SW48 cells (wt)): 3.1 µM | IC50 (SW480 cells (G12V)): 5 µM | IC50 (H358 cells (G12C)): 4.5 µM

Structure (SMILES): CNCc1ccccc1-c1csc([C@@H](C)Nc2nc(C)nc3cc(OCCCCCCCN4CCC(c5cc(F)cc6c5CN(C5CCC(=O)NC5=O)C6=O)CC4)c(OC)cc23)c1 (stereo partly drawn) [Compound A15, 3-(6-Fluoro-4-(1-(7-((6-methoxy-2-methyl-4-(((R)-1-(4-(2-((methylamino)-methyl)phenyl)thiophen-2-yl)ethyl)amino)quinazolin-7-yl)oxy)heptyl)piperidin-4-yl)-1-oxoisoindolin-2-yl)piperidine-2,6-dione]
IC50 (Lovo cells (G13D)): 0.26 µM | IC50 (SW48 cells (wt)): 0.41 µM | IC50 (SW480 cells (G12V)): 0.37 µM | IC50 (H358 cells (G12C)): 0.55 µM

Structure (SMILES): CNCc1ccccc1-c1csc([C@H](C)Nc2nc(C)nc3cc(OCCCCCCCN4CCC(c5cc(F)cc6c5CN(C5CCC(=O)NC5=O)C6=O)CC4)c(OC)cc23)c1 (stereo partly drawn) [Compound A16, 3-(6-Fluoro-4-(1-(7-((6-methoxy-2-methyl-4-(((S)-1-(4-(2-((methylamino)-methyl)phenyl)thiophen-2-yl)ethyl)amino)quinazolin-7-yl)oxy)heptyl)piperidin-4-yl)-1-oxoisoindolin-2-yl)piperidine-2,6-dione]
IC50 (Lovo cells (G13D)): 0.23 µM | IC50 (SW48 cells (wt)): 0.34 µM | IC50 (SW480 cells (G12V)): 0.35 µM | IC50 (H358 cells (G12C)): 0.43 µM

The remaining lines, values ahead:

IC50 (Lovo cells (G13D)): 0.76 µM | IC50 (SW48 cells (wt)): 1.1 µM | IC50 (SW480 cells (G12V)): 0.95 µM | IC50 (H358 cells (G12C)): 1.4 µM
Structure (SMILES): COc1cc2c(N[C@H](C)c3cccc(Br)c3)nc(C)nc2cc1C1CCN(CCCCCN2CCC(c3cc(F)cc4c3CN(C3CCC(=O)NC3=O)C4=O)CC2)CC1 (stereo partly drawn) [Compound A17, 3-(4-(1-(5-(4-(4-(((R)-1-(3-Bromophenyl)ethyl)amino)-6-methoxy-2-methyl-quinazolin-7-yl)piperidin-1-yl)pentyl)piperidin-4-yl)-6-fluoro-1-oxoisoindolin-2-yl)piperidine-2,6-dione]

IC50 (Lovo cells (G13D)): 0.95 µM | IC50 (SW48 cells (wt)): 0.81 µM | IC50 (SW480 cells (G12V)): 1.2 µM | IC50 (H358 cells (G12C)): 0.83 µM
Structure (SMILES): COc1cc2c(N[C@H](C)c3cccc(Br)c3)nc(C)nc2c(CCCCCCCN2CCC(c3cc(F)cc4c3CN(C3CCC(=O)NC3=O)C4=O)CC2)c1OC (stereo partly drawn) [Compound A20, 3-(4-(1-(7-(4-(((R)-1-(3-Bromophenyl)ethyl)amino)-6,7-dimethoxy-2-methyl-quinazolin-8-yl)heptyl)piperidin-4-yl)-6-fluoro-1-oxoisoindolin-2-yl)piperidine-2,6-dione]

IC50 (Lovo cells (G13D)): 0.38 µM | IC50 (SW48 cells (wt)): 0.43 µM | IC50 (SW480 cells (G12V)): 0.43 µM | IC50 (H358 cells (G12C)): 1.1 µM
Structure (SMILES): COc1cc2c(N[C@H](C)c3cccc(Br)c3)nc(C)nc2cc1OCCCCCN1CCC(c2cc3c(cc2F)C(=O)N(C2CCC(=O)NC2=O)C3)CC1 (stereo partly drawn) [Compound A21, 3-(5-(1-(5-((4-(((R)-1-(3-Bromophenyl)ethyl)amino)-6-methoxy-2-methyl-quinazolin-7-yl)oxy)pentyl)piperidin-4-yl)-6-fluoro-1-oxoisoindolin-2-yl)piperidine-2,6-dione]

IC50 (Lovo cells (G13D)): 0.33 µM | IC50 (SW48 cells (wt)): 0.3 µM | IC50 (SW480 cells (G12V)): 0.29 µM | IC50 (H358 cells (G12C)): 0.76 µM
Structure (SMILES): COc1cc2c(N[C@H](C)c3cccc(Br)c3)nc(C)nc2cc1OCCCCCCCCCN1CCC(c2cc3c(cc2F)C(=O)N(C2CCC(=O)NC2=O)C3)CC1 (stereo partly drawn) [Compound A23, 3-(5-(1-(9-((4-(((R)-1-(3-Bromophenyl)ethyl)amino)-6-methoxy-2-methyl-quinazolin-7-yl)oxy)nonyl)piperidin-4-yl)-6-fluoro-1-oxoisoindolin-2-yl)piperidine-2,6-dione]

IC50 (Lovo cells (G13D)): 0.4 µM | IC50 (SW48 cells (wt)): 1.3 µM | IC50 (SW480 cells (G12V)): 0.55 µM | IC50 (H358 cells (G12C)): 1.2 µM
Structure (SMILES): COc1cc2c(N[C@H](C)c3cccc(Br)c3)nc(C)nc2cc1OCCCCCCCCCCCN1CCC(c2cc3c(cc2F)C(=O)N(C2CCC(=O)NC2=O)C3)CC1 (stereo partly drawn) [Compound A24, 3-(5-(1-(11-((4-(((R)-1-(3-Bromophenyl)ethyl)amino)-6-methoxy-2-methyl-quinazolin-7-yl)oxy)undecyl)piperidin-4-yl)-6-fluoro-1-oxoisoindolin-2-yl)piperidine-2,6-dione]
